Laboratory results from patent EP0241232A1, “Isoxazolylethanol derivatives” (SHIONOGI SEIYAKU KABUSHIKI KAISHA, priority 1986, dated 1987).

Experiments:
Sphaerotheca fuliginea [1] = assay: Control of cucumber powdery mildew by foliar spray; assay type: in vivo; conditions: observed 10 days after inoculation; for Control Index Preventive Effect: inoculation 24 hr. after application; for Control Index Curative Effect: inoculation 24 hr. before application
Description: The test compound was dissolved in a small amount of acetone and suspended in demineralized distilled water containing a spreader, to a concentration of 7.8 ppm and 2.0 ppm. Young cucumber plants (c.v. Tsukuba-Shiroibo) of 2-leaf stage grown in pots were sprayed sufficiently with the suspension.
Spores of Sphaerotheca fuliginea cultured in cucumber plants were collected and suspended in distilled water. Inoculation was made by spraying with the spore suspension to the test plant of 24 hr. after application of the test compound (preventive control) or 24 hr. before application (curative control).
Development of the disease was observed 10 days after inoculation and control index was obtained as described in Experiment 3.

[2] = tested on: Erysiphe graminis f. sp. tritici; assay: Control by seed-soaking: powdery mildew in wheat; assay type: in vivo
Description: (§1) The test compound was dissolved in 0.2 ml of acetone and suspended in demineralized distilled water containing a small amount of spreader, to a concentration of 500 ppm. The suspension was further diluted to one quarter dilution with demineralized distilled water (containing a small amount of spreader) to give a suspension in 125 ppm. All seeds of oats, wheat and cucumber were soaked in these suspensions at room temperature for an hour and then the seeds were air-dried.
(§2) The seeds as described above were sown in plastic pots (diameter : 9 cm). For rust and powdery mildews, the pots were kept in a glasshouse for 1 - 3 weeks until the seeds grew to young plants. The young oats (10 - 20 plants per pot) were inoculated by dusting with spores of Puccinia coronata, and the wheat (10 - 20 plants per pot) was also inoculated by spraying with spores of Erysiphe graminis f. sp. tritici, and the cucumber (1 plant per pot) was also inoculated by spraying with spore suspension of Sphaerotheca fuliginea. These inoculated plants were further kept in a glasshouse for 10 - 14 days until assessment. For damping-off, the treated seeds were sown in paper pots (diameter : 7.5 cm; depth : 6 cm) which contained soil infested with Rhizoctonia solani by mixing sterilized soil and pre-cultured fungus. Then the pots were kept in a humid glasshouse at 25 - 32 ^*C.
(§3) Damping-off was observed 15 days after sowing, and disease degree and control effect were obtained from the following equations. [formula] [formula] where diseased seedlings included damping-off and unemerged'seeds due to infection. For the foliar diseases, disease development was observed 10 - 14 days after inoculation of spores, and control effect was obtained by the following index.

Sphaerotheca fuliginea [3] = assay: Control by seed-soaking: powdery mildew in cucumber; assay type: in vivo
Description: as §1, §2, §3

Rhizoctonia solani [4] = assay: Control of cucumber damping-off by soil drench; assay type: in vivo; conditions: 30 ml per cup, judged 15 days after inoculation
Description: as §3
The test compound was dissolved in a small amount of acetone and suspended in demineralized distilled water containing a spreader, to a concentration of 125 ppm and 31 ppm. The soil sterilized by an autoclave was put into paper cups (diameter : 7.5 cm; depth : 6 cm) and cucumber seeds (c.v. : Matsukaze) were sown in the cups (10 seeds/pot). Then the soil surface was covered with the following soil containing pathogen. And then 30 ml of the formation of the test compound was applied to the soil in the cup.
Rhizoctonia solani incubated in a bran medium at 28 °C for 5 days was put into sterile soil and cultured for 24 hr. The inoculated soil was diluted with sterile soil to about 4 times volume. The soil surface in the cups containing cucumber seeds was covered with the soil containing Rhizoctonia solani.
Control effect was judged 15 days after inoculation and control percent was obtained as described in Experiment 3.

Puccinia coronata = assay: Control by seed-soaking: crown rust in oats; assay type: in vivo
Description: as §1, §2, §3

Candida albicans KE-2 [5] = assay: Inhibition test against pseudomycelium formation of Candida albicans; assay type: cell-based; conditions: KE2, minimum effective concentration preventing typical pseudomycelium formation, Eagle-MEM + 20 % calf serum, 18 hours at 37 °C, read-out: Inhibitory Concentration of Pseudo-myselium Formation
Description: Candida albicans KE-2 was inoculated to Eagle-MEM medium (Nissan 2 made by Nissui Seiyaku, Ltd.) supplemented with 20 % calf serum so that its final inoculum of yeast cell might be 1 x 10^6 yeast cells per milliliter. The test compounds were added thereon in two fold dilution series. After incubation for 18 hours at 37 °C, the fungal growth in each drug concentration was smeared and fixed on a slide glass, and the presence or absence of the pseudomycelium formation was examined by a microscope following Giemsa staining. Minimum effective concentration was defined as the lowest concentration of the compound which prevented typical pseudomycelium formation.

Candida albicans KE-2 [6] = assay: Therapeutic effect against experimental candidiasis in mice; assay type: in vivo; conditions: KE2, po, 120 h, mouse survival ratio on the 5th day after infection, Jcl-ICR female mouse, 50 mg/kg orally three times (0, 4, 24 hours)
Description: After Candida albicans KE-2 was incubated on Sabouraud's glucose agar at 28 °C for 48 hr., it was suspended in Sabouraud's glucose broth and the cells ([…]) were injected to a tail vein of Jcl-ICR female mouse (4 weeks age; weight : 18 - 20 g). A suspension of the test compound in 2 % gum arabic was orally administered three times, immediately after infection of the yeast ( 0 hour), after 4 hours and after 24 hours, as a dosage of 50 mg/kg. Non-treated group was used as control. Each eight mice per group was used in control group and treated group. All the mice in control group died within 48 hr. after infection. Therapeutic effect of the test compound was judged by mouse survival ratio on the 5th day after infection.

Rhizoctonia solani [7] = assay: Control by seed-soaking: Rhizoctonia damping-off in cucumber; assay type: in vivo; conditions: 360 h, seed-soaking, observed 15 days after sowing, control effect by equation, read-out: Control Index Rhizoctonia Damping-Off in Cucumber
Description: as §1, §2, §3

Compound	Control Index Preventive Effect (Sphaerotheca fuliginea [1]; foliar spray 2.0 ppm)	Control Index Curative Effect (Sphaerotheca fuliginea [1]; foliar spray 2.0 ppm)	Control Index Preventive Effect (Sphaerotheca fuliginea [1]; foliar spray 7.8 ppm)	Control Index Curative Effect (Sphaerotheca fuliginea [1]; foliar spray 7.8 ppm)	Control Index Powdery Mildew in Wheat ([2]; 125 ppm)	Control Index Powdery Mildew in Wheat ([2]; 500 ppm)	Control Index Powdery Mildew in Cucumber (Sphaerotheca fuliginea [3]; 125 ppm)	Control Index Powdery Mildew in Cucumber (Sphaerotheca fuliginea [3]; 500 ppm)	Control (Rhizoctonia solani [4]; soil drench 31 ppm)	Control (Rhizoctonia solani [4]; soil drench 125 ppm)	Control Index Crown Rust in Oats (Puccinia coronata; 125 ppm)	Control Index Crown Rust in Oats (Puccinia coronata; 500 ppm)	minimal effective concentration (Candida albicans KE-2 [5])	responders at 50 mg/kg (Candida albicans KE-2 [6])	pest or weed control at 125 ppm (Rhizoctonia solani [7])	pest or weed control at 500 ppm (Rhizoctonia solani [7])
OC(Cn1cncn1)(c1ccon1)c1ccc(F)cc1F (stereo not drawn) [Ia - 4]	97 (Leaves covered with symptom less than 3 % area)	100	100	100	50 (Leaves covered with symptom between 46 % and 65 % area)	100	50 (Leaves covered with symptom between 46 % and 65 % area)	70 (Leaves covered with symptom between 16 % and 45 % area)	100%	100%	50 (Leaves covered with symptom between 46 % and 65 % area)	97 (Leaves covered with symptom less than 3 % area)	0.16 µg/mL	100%	53%	86%
OC(Cn1cncn1)(c1ccon1)c1ccc(Cl)cc1Cl (stereo not drawn) [Ia - 3]	100	100	100	100	70 (Leaves covered with symptom between 16 % and 45 % area)	100	50 (Leaves covered with symptom between 46 % and 65 % area)	70 (Leaves covered with symptom between 16 % and 45 % area)	100%	100%	97 (Leaves covered with symptom less than 3 % area)	100	0.02 µg/mL	100%	100%	94%
OC(Cn1cncn1)(c1ccc(Cl)cc1)c1ccon1 (stereo not drawn) [Ia - 2]	97 (Leaves covered with symptom less than 3 % area)	100	100	100	100	100	70 (Leaves covered with symptom between 16 % and 45 % area)	90 (Leaves covered with symptom between 4 % and 15 % area)	100%	100%	70 (Leaves covered with symptom between 16 % and 45 % area)	100	0.04 µg/mL	100%	93%	100%
